According to patent publication US9326506B2, “Preparation method, agricultural composition and applications of natural brassinolide analogs” (CHENGDU NEWSUN CROPSCIENCE CO., LTD, priority 2012, dated 2016):

Test system: rice
Assay: Low temperature assay on rice seedlings
Type: in vivo
Procedure: According to a low temperature assay, we measured parameters including plant height, number of leaf, area of leaf, number of tiller, weight of root at low temperature to completely determine effects of the natural brassinolide analogues on the resistance to low temperature of a plant.
The natural brassinolide analogues, BR1, BR2, BR3, BR4, BR5 and BR6, used herein, were those prepared by the method of Example 1. Respectively the analogues were dissolved into 95% (V/V) ethanol solution, and then diluted with pure water to 1 mg/L, 0.1 mg/L, 0.01 mg/L, 0.001 mg/L and 0.0001 mg/L. In addition, pure water was used as a control.
After rice seeds were disinfected by using 5% sodium hypochlorite solution treatment, they were rinsed with distilled water until their pH>7, placed into a petri dish in a dark incubator, and cultured by using water at 30° C.±2° C. for 9 days. Then respectively the nine-day-old etiolated seedlings of rice were immersed in the above solutions containing different concentrations of the natural brassinolide analogues or pure water, and cultured at the temperature of 1° C., 2° C., 3° C., 4° C. and 5° C. for 24 hr. The parameters including plant height, area of leaf and weight of root after 3, 6, 9 and 12 days and number of leaf and number of tiller after 12 days were measured.

## CC(C)[C@H](C)[C@@H](O)[C@H](O)[C@@H](C)[C@H]1CCC2C3CC(=O)C4C[C@H](O)CC[C@]4(C)C3CC[C@@]21C (stereo partly shown) [BR4]
0.001 mg/l, 2 °C, 6 days
  Area of leaf: 11.6 cm^2
  Height: 7 cm
  Weight of root: 3.0 g
0.001 mg/l, 2 °C, 9 days
  Area of leaf: 12 cm^2
  Height: 7.1 cm
  Weight of root: 3 g
0.001 mg/l, 2 °C, 12 days
  Area of leaf: 13.1 cm^2
  Height: 7.3 cm
  Number of leaf: 3
  Number of tiller: 3
  Weight of root: 3.9 g
0.001 mg/l, 3 °C, 3 days
  Area of leaf: 10 cm^2
  Height: 7 cm
  Weight of root: 2.5 g
0.001 mg/l, 3 °C, 6 days
  Area of leaf: 12 cm^2
  Height: 7.2 cm
  Weight of root: 2.6 g
0.001 mg/l, 3 °C, 9 days
  Area of leaf: 12.2 cm^2
  Height: 7.4 cm
  Weight of root: 2.9 g
0.001 mg/l, 3 °C, 12 days
  Area of leaf: 13 cm^2
  Height: 7.5 cm
  Number of leaf: 3
  Number of tiller: 2
  Weight of root: 2.9 g
0.001 mg/l, 4 °C, 3 days
  Area of leaf: 10 cm^2
  Height: 7.1 cm
  Weight of root: 2.5 g
0.001 mg/l, 4 °C, 6 days
  Area of leaf: 12 cm^2
  Height: 7.3 cm
  Weight of root: 2.6 g
0.001 mg/l, 4 °C, 9 days
  Area of leaf: 13 cm^2
  Height: 7.4 cm
  Weight of root: 2.9 g
0.001 mg/l, 4 °C, 12 days
  Area of leaf: 13.1 cm^2
  Height: 7.5 cm
  Number of leaf: 3
  Number of tiller: 2
  Weight of root: 2.9 g
0.001 mg/l, 5 °C, 3 days
  Area of leaf: 10.2 cm^2
  Height: 7.2 cm
  Weight of root: 2.8 g
0.001 mg/l, 5 °C, 6 days
  Area of leaf: 14 cm^2
  Height: 7.4 cm
  Weight of root: 2.9 g
0.001 mg/l, 5 °C, 9 days
  Area of leaf: 15.4 cm^2
  Height: 7.4 cm
  Weight of root: 3.0 g
0.001 mg/l, 5 °C, 12 days
  Area of leaf: 16 cm^2
  Height: 7.9 cm
  Number of leaf: 3
  Number of tiller: 3
  Weight of root: 3.7 g
0.01 mg/l, 1 °C, 3 days
  Area of leaf: 9.2 cm^2
  Height: 6.7 cm
  Weight of root: 2.8 g
0.01 mg/l, 1 °C, 6 days
  Area of leaf: 11.6 cm^2
  Height: 7.1 cm
  Weight of root: 3.0 g
0.01 mg/l, 1 °C, 9 days
  Area of leaf: 12.4 cm^2
  Height: 7.4 cm
  Weight of root: 3.1 g
0.01 mg/l, 1 °C, 12 days
  Area of leaf: 13.6 cm^2
  Height: 7.5 cm
  Number of leaf: 3
  Number of tiller: 3
  Weight of root: 3.9 g
0.01 mg/l, 2 °C, 3 days
  Area of leaf: 10 cm^2
  Height: 7 cm
  Weight of root: 2.8 g
0.01 mg/l, 2 °C, 6 days
  Area of leaf: 11 cm^2
  Height: 7.2 cm
  Weight of root: 3 g
0.01 mg/l, 2 °C, 9 days
  Area of leaf: 12.5 cm^2
  Height: 7.4 cm
  Weight of root: 3 g
0.01 mg/l, 2 °C, 12 days
  Area of leaf: 13.4 cm^2
  Height: 7.5 cm
  Number of leaf: 3
  Number of tiller: 3
  Weight of root: 3.2 g
0.01 mg/l, 3 °C, 3 days
  Area of leaf: 10.2 cm^2
  Height: 7 cm
  Weight of root: 2.5 g
0.01 mg/l, 3 °C, 6 days
  Area of leaf: 12 cm^2
  Height: 7.3 cm
  Weight of root: 2.6 g
0.01 mg/l, 3 °C, 9 days
  Area of leaf: 12.1 cm^2
